Read-outs that look alike come from different tables or passages of the source.

What all share (assay): microbe, parasite or virus in culture
Format in all cases: cell-based, Hepatitis C virus (HCV)

Assay [1] deals with HCV replicon 1AY93H. The following applies: Replicon Assay A. In a few lines: (§1)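 Read-out is replicon RNA per cell by real-time RT-PCR, normalised to cyclophilin mRNA amplified in the same well. Cells were exposed to compound for 3 days at 2000 cells/well in medium with 5% fetal bovine serum and 0.5% DMSO.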
Background: Replicon systems follow genome replication, usually without infectious particles.

The subject of assay [2] is HCV replicon 1A. The following applies: Replicon Assay A. In a few lines: as §1
The test system of assay [3] is HCV replicon 2B. To be noted: Hepatitis C virus, Replicon Assay A. In a few lines:
as §1

Where [4] appears, read: Hepatitis C virus, read-out: 1A Y93H IC50 (nM), replicon 1AY93H.
[5] abbreviates: read-out: 2B IC50 (nM), replicon 2B.
[6] abbreviates: Hepatitis C virus, read-out: 1A Y93H IC50, HCV replicon 1A Y93H.
Where [7] appears, read: Hepatitis C virus, HCV replicon 1A.
Where [8] appears, read: read-out: 2B IC50, HCV replicon 2B.
[9] abbreviates: read-out: 1A Y93H IC50, replicon 1AY93H.
Where [10] appears, read: read-out: 1A Y93H IC50, HCV replicon 1A Y93H.

With `COC(=O)N[C@H](C(=O)N1CCC[C@H]1c1ncc(-c2cc(F)c3c(c2)OC(c2ccc(C4(N)CC4)s2)n2c-3cc3cc(-c4cnc([C@@H]5CCCN5C(=O)[C@@H](NC(=O)OC)C(C)C)[nH]4)ccc32)[nH]1)C(C)C` (mixture of isomers) [Compound 57], the 50% inhibitory concentration (IC50) was found to be 0.37 nM in assay [1] (setting [4]); 0.0114 nM in assay [2] (Hepatitis C virus, replicon 1A); 2.79 nM in assay [3] (setting [5]).

On to `COC(=O)N[C@H](C(=O)N1CCC[C@H]1c1ncc(-c2cc(F)c3c(c2)OC(c2cc(C)c(C(C)C)s2)n2c-3cc3cc(-c4cnc([C@@H]5CCCN5C(=O)[C@@H](NC(=O)OC)C(C)C)[nH]4)ccc32)[nH]1)C(C)C` (mixture of isomers) [Compound 64], for which the IC50 in assay [1] (setting [4]) worked out at 0.15 nM; in assay [2] (Hepatitis C virus, replicon 1A), 0.004 nM; in assay [3] (setting [5]) it was 4.01 nM.

Turning to `COC(=O)N[C@H](C(=O)N1CCC[C@H]1c1ncc(-c2cc(F)c3c(c2)OC(c2ccc(C4CC4)s2)n2c-3cc3cc(-c4cnc([C@@H]5C[C@@H](F)CN5C(=O)[C@@H](c5ccccc5)N5CCC5)[nH]4)ccc32)[nH]1)C(C)C` (mixture of isomers) [Compound 109], the IC50 in assay [1] (setting [4]) is 4.5 nM; in assay [2] (Hepatitis C virus, replicon 1A), 0.0058 nM; in assay [3] (setting [5]), 24.4 nM.

Take `COC(=O)N[C@H](C(=O)N1CCC[C@H]1c1ncc(-c2cc(F)c3c(c2)OC(c2cccs2)n2c-3cc3cc(-c4cnc([C@@H]5CCCN5C(=O)[C@@H](NC(=O)OC)C(C)C)[nH]4)ccc32)[nH]1)C(C)C` (mixture of isomers) [Compound 500]: the IC50 in assay [1] (setting [6]) is 0.367 nM; in assay [2] (setting [7]), 0.0219 nM; in assay [3] (setting [8]) it was 2.5 nM.

With `COC(=O)N[C@H](C(=O)C1NCC[C@H]1c1ncc(-c2ccc3c(c2)OC(c2ccc(C4CC4)s2)n2c-3cc3cc(-c4c[nH]c([C@@H]5C[C@H]6C[C@H]6N5C(=O)[C@@H](NC(=O)OC)C(C)C)n4)ccc32)[nH]1)C(C)C` (mixture of isomers) [Compound 504], the IC50 in assay [1] (setting [6]) stood at 0.245 nM; in assay [2] (setting [7]) it was 0.0167 nM; in assay [3] (setting [8]), 1.52 nM.

As for `COC(=O)N[C@H](C(=O)N1CCC[C@H]1c1ncc(-c2ccc3c(c2)cc2n3C(c3ccc(Cl)s3)Oc3cc(-c4cnc([C@@H]5CCCN5C(=O)[C@H](NC(=O)OC)C(C)C)[nH]4)cc(F)c3-2)[nH]1)C(C)C` (mixture of isomers) [Compound 506], the results for the IC50 in assay [1] (setting [6]), in assay [2] (setting [7]) and in assay [3] (setting [8]) were 0.397 nM, 0.0171 nM and 0.471 nM, respectively.

As to `COC(=O)N[C@H](C(=O)N1CCC[C@H]1c1ncc(-c2cc(F)c3c(c2)OC(c2ccc(C4CC4)s2)n2c-3cc3cc(-c4cnc([C@@H]5CCCN5C(=O)[C@@H](NC(=O)OC)C(C)C)[nH]4)ccc32)[nH]1)C(C)C` (mixture of isomers) [Compound 510], the results for the IC50 in assay [1] (setting [6]), in assay [2] (setting [7]) and in assay [3] (setting [8]) were 0.0979 nM, 0.00793 nM and 0.0488 nM, respectively.

Take `COC(=O)N[C@H](C(=O)N1C2C[C@@H]2C[C@H]1c1nc(-c2ccc3c(c2)cc2n3C(c3ccc(Cl)s3)Oc3cc(-c4c[nH]c([C@@H]5C[C@H]6C[C@H]6N5C(=O)[C@@H](NC(=O)OC)C(C)C)n4)ccc3-2)c[nH]1)C(C)C` (mixture of isomers) [Compound 710]: the IC50 in assay [1] (setting [6]) is 0.2 nM; in assay [2] (setting [7]) it was 0.05 nM; in assay [3] (setting [8]), 1.08 nM.

With `COC(=O)N[C@H](C(=O)N1C[C@H](F)C[C@H]1c1nc(-c2ccc3c(c2)cc2n3C(c3cc(C)c(C)s3)Oc3cc(-c4cnc([C@@H]5C[C@@H](F)CN5C(=O)[C@@H](NC(=O)OC)C(C)C)[nH]4)ccc3-2)c[nH]1)C(C)C` (mixture of isomers) [Compound 711], the IC50 was 0.12 nM in assay [1] (setting [6]), 0.027 nM in assay [2] (setting [7]) and 0.029 nM in assay [3] (setting [8]).

In the case of `CCc1ccc(C2Oc3cc(-c4cnc([C@@H]5CCCN5C(=O)[C@@H](NC(=O)OC)C(C)C)[nH]4)cc(F)c3-c3cc4cc(-c5cnc([C@@H]6C[C@@H](F)CN6C(=O)C(NC(=O)OC)C6CCOC(C)(C)C6)[nH]5)ccc4n32)s1` (single isomer, unassigned) [Compound 256], the IC50 in assay [1] (setting [9]) was 16.9 nM; in assay [2] (replicon 1A), 0.117 nM.

With `CCc1ccc(C2Oc3cc(-c4cnc([C@@H]5CCCN5C(=O)[C@@H](NC(=O)OC)C(C)C)[nH]4)cc(F)c3-c3cc4cc(-c5cnc([C@@H]6C[C@@H](F)CN6C(=O)C(NC(=O)OC)C6CCOC(C)(C)C6)[nH]5)ccc4n32)s1` (single isomer, unassigned) [Compound 257], the IC50 in assay [1] (setting [9]) amounted to 9.38 nM; in assay [2] (replicon 1A), 0.0924 nM.

On to `COC(=O)NC(C(=O)N1[C@@H]2C[C@@H]2C[C@H]1c1ncc(-c2ccc3c(c2)cc2n3C(c3ccc(C4CC4)s3)Oc3cc(-c4cnc([C@@H]5CCCN5C(=O)[C@@H](NC(=O)OC)C(C)C)[nH]4)cc(F)c3-2)[nH]1)C1C[C@@H](C)O[C@@H](C)C1` (single isomer, unassigned) [Compound 274], for which the results for the IC50 in assay [1] (setting [9]) and in assay [2] (replicon 1A) were 7.87 nM and 0.022 nM, respectively.

In the case of `CC[C@@H]1CC(C(NC(=O)OC)C(=O)N2CCC[C@H]2c2ncc(-c3ccc4c(c3)cc3n4C(c4ccc(C5CC5)s4)Oc4cc(-c5cnc([C@@H]6CCCN6C(=O)[C@@H](NC(=O)OC)C(C)C)[nH]5)cc(F)c4-3)[nH]2)C[C@H](CC)O1` (single isomer, unassigned) [Compound 288], the IC50 is 16 nM in assay [1] (setting [9]) and 0.0046 nM in assay [2] (replicon 1A).

Consider `COC(=O)NC(C(=O)N1CCC[C@H]1c1ncc(-c2cc(F)c3c(c2)OC(c2ccc(C4CC4)s2)n2c-3cc3cc(-c4cnc([C@@H]5CCCN5C(=O)C(NC(=O)OC)C5C[C@@H](C)O[C@@H](C)C5)[nH]4)ccc32)[nH]1)C1C[C@@H](C)O[C@@H](C)C1` (single isomer, unassigned) [Compound 304], for which the results for the half-maximal inhibitory concentration (IC50) in assay [1] (setting [9]) and in assay [2] (replicon 1A) were 16.8 nM and 0.0455 nM, respectively.

On to `COC(=O)N[C@H](C(=O)N1CCC[C@H]1c1ncc(-c2cc(F)c3c(c2)OC(c2csc(C4CC4)c2)n2c-3cc3cc(-c4cnc([C@@H]5CCCN5C(=O)[C@@H](NC(=O)OC)C(C)C)[nH]4)ccc32)[nH]1)C(C)C` (single isomer, unassigned) [Compound 321], for which the IC50 is 5.79 nM in assay [1] (setting [9]) and 0.0013 nM in assay [2] (Hepatitis C virus, replicon 1A).

For `COC(=O)N[C@H](C(=O)N1CCC[C@H]1c1ncc(-c2ccc3c(c2)OC(c2ccc(C4CC4)s2)n2c-3c(F)c3cc(-c4cnc([C@@H]5CCCN5C(=O)[C@@H](NC(=O)OC)C(C)C)[nH]4)ccc32)[nH]1)C(C)C` (single isomer, unassigned) [Compound 605], the IC50 was found to be 1.26 nM in assay [1] (setting [10]) and 0.0017 nM in assay [2] (HCV replicon 1A).

For `COC(=O)N[C@H](C(=O)N1CCC[C@H]1c1ncc(-c2cc(F)c3c(c2)OC(c2cc4ccccc4s2)n2c-3cc3cc(-c4cnc([C@@H]5C[C@H]6C[C@H]6N5C(=O)[C@@H](NC(=O)OC)C(C)C)[nH]4)ccc32)[nH]1)C(C)C` (single isomer, unassigned) [Compound 614], the half-maximal inhibitory concentration (IC50) was found to be 2.21 nM in assay [1] (setting [10]) and 0.0015 nM in assay [2] (setting [7]).

As to `COC(=O)NC(C(=O)N1[C@@H]2C[C@@H]2C[C@H]1c1ncc(-c2ccc3c(c2)cc2n3C(c3cc4c(s3)CCC4)Oc3cc(-c4cnc([C@@H]5CCCN5C(=O)[C@@H](NC(=O)OC)C(C)C)[nH]4)cc(F)c3-2)[nH]1)C(C)C` (single isomer, unassigned) [Compound 660], the values for the IC50 in assay [1] (setting [10]) and in assay [2] (HCV replicon 1A) were 1.04 nM and 0.00338 nM, respectively.

As for `COC(=O)N[C@H](C(=O)N1CCC[C@H]1c1ncc(-c2cc(F)c3c(c2)OC(c2ccc(CC(C)(C)OC)s2)n2c-3cc3cc(-c4cnc([C@@H]5CCCN5C(=O)[C@@H](NC(=O)OC)C(C)C)[nH]4)ccc32)[nH]1)C(C)C` (single isomer, unassigned) [Compound 843], the IC50 in assay [1] (HCV replicon 1A Y93H, read-out: 1A Y93H IC50) came out at 0.329 nM; in assay [2] (HCV replicon 1A) it was 0.0022 nM.

The IC50 is the concentration at which inhibition is half-maximal.

Source of the values: patent US20160257697A1, “THIOPHENE-SUBSTITUTED TETRACYCLIC COMPOUNDS AND METHODS OFUSE THEREOF FOR THE TREATMENT OF VIRAL DISEASES” (priority 2013, published 2016).
